{"source": "patent US20060003985A1", "about": "“Enhancement of sleep with t-type calcium channel antagonists” (priority 2002, published 2006)", "system": "Sprague Dawley rats", "test": "Rat sleep study with ECoG/EMG telemetry (sleep stage scoring)", "format": "in vivo", "settings": "averaged over seven nights", "description": "This study examined the effects of the T-type calcium channel antagonist Compound A (6-chloro-3,4-dihydro-3-ethyl-4-phenyl-4-ethyl-2(1H)-quinazolinone; PCT WO 93/04047) on sleep by using electrocorticogram (ECoG) or electroencephalographic (EEG) measures to determine the efficacy of the T-type calcium channel antagonistin the altering the states of arousal or sleep.\nEight adult male Sprague Dawley rats (450-550 g; Taconic Farms, Germantown, N.Y.) were subcutaneously implanted with telemetric physiologic monitors (Model F50-EET; Data Sciences International, Arden Hills, Minn.) that were used to simultaneously record both the electrocorticogram (ECoG) and electromyographic (EMG) activities. […]\nFollowing the completion of data collection, all data were scored with automated sleep stage analysis software, Somnologica (Medcare Co.; Buffalo, N.Y.). […] Active wake was assigned to the epoch when movement of the animal was detected within the cage, or when there was an active EMG signal and the EEG consisted of alpha and beta frequency activity. An epoch was scored as light sleep when there was no movement activity, the EMG was moderately active and the EEG consisted of either theta or theta with less than 50% of the epoch showing delta activity. Delta sleep was scored when there was no movement, reduced EMG activity, and the EEG consisted of more than 50% delta wave activity (i.e. 0.5 to 4 Hz). […]", "data": [{"smiles": "CCN1C(=O)Nc2ccc(Cl)cc2C1(CC)c1ccccc1", "note": "(centres unmarked) [Compound A, 6-chloro-3,4-dihydro-3-ethyl-4-phenyl-4-ethyl-2(1H)-quinazolinone]", "values": [{"measurement": "entries into awake relative to vehicle (sleep fragmentation)", "setting": "FIG. 1, 30 minute bins", "result": "reduced the entries into awake relative to vehicle"}, {"measurement": "wake duration relative to vehicle", "setting": "FIG. 2, 30 minute bins", "result": "reduced the wake duration relative to vehicle"}]}]}
